In series [1] the target is FumC (fumarate hydratase) from R. prowazekii (Rickettsia prowazekii, UniProt Q9ZCQ4). The following applies: active site; product analog; from crystallization precipitant, 1.4 M sodium malonate pH 6.0, 289 K; one malonate per protomer.
Series [2] concerns the molecule itself. Nature of the series: crystal structure.

For the molecule `O=C(O)CC(=O)O` [malonate], the “X-ray crystal structure, 2.4 A” value in series [1] is “The R. prowazekii FumC structure was determined in complex with the product analog malonate”.

B1: fumarate hydratase (FumC) from Rickettsia prowazekii strain Madrid E (enzyme)
chain: MKNYRIESDSFGEIQIEEKFYWGAQTQRSLNNFKISKQKMPKILIRALAILKKCAAQVNYEFGDLEYKIATSIDKAIDRILAGEFEDNFPLVVWQTGSGTQTNMNMNEVIASIANEELTGKKGGKFPVHPNDHVNKGQSSNDSFPTAMHIATVLATKQQLIPALNNLLTYLQDKSKDWDKIIKIGRTHLQDATPLTLKQEFSGYITQIEYALERIEDALKKVYLLAQGGTAVGTGINSKIGFDIKFAQKVAEFTQQPFKTAPNKFESLAAHDALVEFSGTLNTIAVSLMKIANDIRLLGSGPRCGLGELHLPENEPGSSIMPGKVNPTQVEALTMVCTQVMGNHVTVTIAGSNGHLELNVFKPVIIYNILQSIELLSDSVNSFVTHCVKGLEPNIARINTLRDKSLMLVTVLNPHIGYDNAAKIAKEAHKYGITLKEAAKKLNFLSEEEFDKIVVPEKMIS
notes: also called fumarase; class II fumarate hydratase
As for B1, the binding result in series [2] is “binds”.

For the origin of these results see paper PMC3169413 (Acta Crystallographica Section F: Structural Biology and …, 2011).
